System: p-PI3K and p-Akt in HepG2 cells
Assay: Western blotting p-PI3K and p-AKT, HepG2
Format: cell-based, human
Conditions: HepG2, with respect to control untreated cells
Description: Western blotting analysis was conducted using untreated and treated HepG2 and HL60 cells. Cells were washed in PBS and lysed in a boiling sample buffer (62.5 mM Tris-HCl pH 6.8, 1% SDS, 10% glycerol, and 5% β-mercaptoethanol) for sodium dodecyl sulfate polyacrylamide gel electrophoresis (SDS-PAGE). The lysates were boiled for 5 min with a lamellae buffer, and the proteins were separated by SDS-PAGE and transferred to an Immobilon membrane (Millipore, Burlington, MA, USA). After incubation in 5% non-fat dry milk, Tris-HCL, 0.1% Tween 20 for 1 h, p-PI3K, and p-AKT, primary antibodies were added to one of the membranes containing specimen samples and incubated at 4 °C overnight. Appropriate secondary antibodies were incubated for 2 hr at room temperature. After being washed twice n 1× TBS-T, densitometric analysis of the immunoblots was performed to quantify the amounts of p-PI3K and p-AKT against the control sample by total protein normalization using Image analysis software on the ChemiDoc MP imaging system (version 3) produced by Bio-Rad (Hercules, CA, USA).
concentration was measured. Lysates were combined with reaction buffer and
incubated with Caspase 3/7 Detection Reagent (specific colorimetric substrates) at 37
°C for 6 h. The samples were estimated at λ 488 nm in BD FACS Calibur flow
2.2.2.3. […]
the immunoblots was performed to quantify the amounts of p-PI3K and p-AKT against […]

**Q.** With `Cc1c(Br)c(=O)oc2c(Br)c(OC(=O)/C=C/c3ccccc3)c(Br)cc12` [Compound 8b, (2E)-3,6,8-Tribromo-4-methyl-2-oxo-2H-chromen-7-yl Cinnamate] as the compound, how does the “levels of p-PI3K and p-Akt” value read?
**A.** effectively suppressed

Source: paper PMC9571264 (Molecules, 2022)
